Earlier results in patent EP0279688B1, “Methods and compositions for the use of HIV env polypeptides and antibodies thereto” (GENENTECH, INC., priority 1987, dated 1988).

Test system: viral replication
Details: Mitsuya and Broder, 1985

Row | SMILES | concentrations inhibiting viral replication
1 | Cc1cn([C@H]2C[C@H](N=[N+]=[N-])[C@@H](CO)O2)c(=O)[nH]c1=O [AZT] | 50-500 µm
2 | Nc1ccn([C@H]2CC[C@@H](CO)O2)c(=O)n1 [DDC] | 50-500 µm
